Laboratory results as given in the supplement of paper PMC10307832.

Experiments:
Assay in all cases: relative viability (nuclei count vs DMSO), 5 days (fraction); higher = more cells survive
NCI-H1944 = test system: NCI-H1944
Summary of the method: (§1)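 Medians of duplicate plates are given as relative viability. That measure is the nuclei count in treated wells divided by the count in vehicle wells. Counts were taken on 4× images of lung cancer cell lines in 1536-well plates, 5 days after pin-tool dosing the day after seeding with one drug alone or a fixed anchor-drug dose plus five library-drug doses (not always all listed) in √10 steps.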

H3255 = test system: H3255
Summary of the method: as §1

NCI-H2085 = test system: NCI-H2085
Summary of the method: as §1

SK-MES-1 = test system: SK-MES-1
Summary of the method: as §1

LCLC-97TM1 = test system: LCLC-97TM1
Summary of the method: as §1

UMC-11 = test system: UMC-11
Summary of the method: as §1

ChaGo-K-1 = test system: ChaGo-K-1
Summary of the method: as §1

NCI-H2405 = test system: NCI-H2405
Summary of the method: as §1

NCI-H1651 = test system: NCI-H1651
Summary of the method: as §1

NCI-H1563 = test system: NCI-H1563
Summary of the method: as §1

NCI-H1793 = test system: NCI-H1793
Summary of the method: as §1

EPLC-272H = test system: EPLC-272H
Summary of the method: as §1

HCC-827 = test system: HCC-827
Summary of the method: as §1

EMC-BAC-2 = test system: EMC-BAC-2
Summary of the method: as §1

NCI-H2087 = test system: NCI-H2087
Summary of the method: as §1

NCI-H520 = test system: NCI-H520
Summary of the method: as §1

NCI-H2023 = test system: NCI-H2023
Summary of the method: as §1

NCI-H650 = test system: NCI-H650
Summary of the method: as §1

NCI-H322M = test system: NCI-H322M
Summary of the method: as §1

NCI-H1355 = test system: NCI-H1355
Summary of the method: as §1

NCI-H1395 = test system: NCI-H1395
Summary of the method: as §1

LCLC-103H = test system: LCLC-103H
Summary of the method: as §1

NC(=O)Nc1cc(-c2cccc(F)c2)sc1C(=O)N[C@H]1CCCNC1 [AZD7762] + COc1cc2c(Oc3ccc(NC(=O)C4(C(=O)Nc5ccc(F)cc5)CC4)cc3F)ccnc2cc1OCCCN1CCOCC1 [Foretinib] (partner 0.25 µM)
relative viability (NCI-H1944; first compound 0.01 µM): 0.907 | relative viability (NCI-H1944; first compound 0.03162 µM): 0.975 | relative viability (NCI-H1944; first compound 0.1 µM): 1.06 | relative viability (NCI-H1944; first compound 0.3162 µM): 1.08 | relative viability (NCI-H1944; first compound 1 µM): 0.591 | relative viability (H3255; first compound 0.01 µM): 1.12 | relative viability (H3255; first compound 0.03162 µM): 0.875 | relative viability (H3255; first compound 0.1 µM): 0.972 | relative viability (H3255; first compound 0.3162 µM): 0.89 | relative viability (H3255; first compound 1 µM): 0.859 | relative viability (NCI-H2085; first compound 0.01 µM): 0.946 | relative viability (NCI-H2085; first compound 0.03162 µM): 0.938 | relative viability (NCI-H2085; first compound 0.1 µM): 0.865 | relative viability (NCI-H2085; first compound 0.3162 µM): 1.21 | relative viability (NCI-H2085; first compound 1 µM): 0.697 | relative viability (SK-MES-1; first compound 0.01 µM): 0.83 | relative viability (SK-MES-1; first compound 0.03162 µM): 0.973 | relative viability (SK-MES-1; first compound 0.1 µM): 1.02 | relative viability (SK-MES-1; first compound 0.3162 µM): 0.903 | relative viability (SK-MES-1; first compound 1 µM): 0.528 | relative viability (LCLC-97TM1; first compound 0.01 µM): 0.891 | relative viability (LCLC-97TM1; first compound 0.03162 µM): 0.88 | relative viability (LCLC-97TM1; first compound 0.1 µM): 1.02 | relative viability (LCLC-97TM1; first compound 0.3162 µM): 0.95 | relative viability (LCLC-97TM1; first compound 1 µM): 0.948 | relative viability (UMC-11; first compound 0.01 µM): 1.04 | relative viability (UMC-11; first compound 0.03162 µM): 1.1 | relative viability (UMC-11; first compound 0.1 µM): 1.11 | relative viability (UMC-11; first compound 0.3162 µM): 0.765 | relative viability (UMC-11; first compound 1 µM): 0.384 | relative viability (ChaGo-K-1; first compound 0.01 µM): 0.924 | relative viability (ChaGo-K-1; first compound 0.03162 µM): 0.937 | relative viability (ChaGo-K-1; first compound 0.1 µM): 1.02 | relative viability (ChaGo-K-1; first compound 0.3162 µM): 0.899 | relative viability (ChaGo-K-1; first compound 1 µM): 0.976 | relative viability (NCI-H2405; first compound 0.01 µM): 1.13 | relative viability (NCI-H2405; first compound 0.03162 µM): 1.07 | relative viability (NCI-H2405; first compound 0.1 µM): 1.05 | relative viability (NCI-H2405; first compound 0.3162 µM): 1.03 | relative viability (NCI-H2405; first compound 1 µM): 0.67 | relative viability (NCI-H1651; first compound 0.01 µM): 0.912 | relative viability (NCI-H1651; first compound 0.03162 µM): 0.785 | relative viability (NCI-H1651; first compound 0.1 µM): 0.693 | relative viability (NCI-H1651; first compound 0.3162 µM): 0.573 | relative viability (NCI-H1651; first compound 1 µM): 0.186 | relative viability (NCI-H1563; first compound 0.01 µM): 1.04 | relative viability (NCI-H1563; first compound 0.03162 µM): 0.967 | relative viability (NCI-H1563; first compound 0.1 µM): 0.974 | relative viability (NCI-H1563; first compound 0.3162 µM): 0.94 | relative viability (NCI-H1563; first compound 1 µM): 0.83 | relative viability (NCI-H1793; first compound 0.01 µM): 0.732 | relative viability (NCI-H1793; first compound 0.03162 µM): 0.682 | relative viability (NCI-H1793; first compound 0.1 µM): 0.595 | relative viability (NCI-H1793; first compound 0.3162 µM): 0.8 | relative viability (NCI-H1793; first compound 1 µM): 0.608 | relative viability (EPLC-272H; first compound 0.01 µM): 0.676 | relative viability (EPLC-272H; first compound 0.03162 µM): 0.654 | relative viability (EPLC-272H; first compound 0.1 µM): 0.654 | relative viability (EPLC-272H; first compound 0.3162 µM): 0.615 | relative viability (EPLC-272H; first compound 1 µM): 0.256 | relative viability (HCC-827; first compound 0.01 µM): 0.975 | relative viability (HCC-827; first compound 0.03162 µM): 1.06 | relative viability (HCC-827; first compound 0.1 µM): 1.02 | relative viability (HCC-827; first compound 0.3162 µM): 1.08 | relative viability (HCC-827; first compound 1 µM): 0.853 | relative viability (EMC-BAC-2; first compound 0.01 µM): 1.08 | relative viability (EMC-BAC-2; first compound 0.03162 µM): 1 | relative viability (EMC-BAC-2; first compound 0.1 µM): 1.08 | relative viability (EMC-BAC-2; first compound 0.3162 µM): 1.04 | relative viability (EMC-BAC-2; first compound 1 µM): 0.89 | relative viability (NCI-H2087; first compound 0.01 µM): 1.28 | relative viability (NCI-H2087; first compound 0.03162 µM): 1.12 | relative viability (NCI-H2087; first compound 0.1 µM): 1.34 | relative viability (NCI-H2087; first compound 0.3162 µM): 1.32 | relative viability (NCI-H2087; first compound 1 µM): 1.29 | relative viability (NCI-H520; first compound 0.01 µM): 0.989 | relative viability (NCI-H520; first compound 0.03162 µM): 0.826 | relative viability (NCI-H520; first compound 0.1 µM): 0.803 | relative viability (NCI-H520; first compound 0.3162 µM): 0.518 | relative viability (NCI-H520; first compound 1 µM): 0.351 | relative viability (NCI-H2023; first compound 0.01 µM): 0.788 | relative viability (NCI-H2023; first compound 0.03162 µM): 0.529 | relative viability (NCI-H2023; first compound 0.1 µM): 0.652 | relative viability (NCI-H2023; first compound 0.3162 µM): 0.393 | relative viability (NCI-H2023; first compound 1 µM): 0.098 | relative viability (NCI-H650; first compound 0.01 µM): 1.13 | relative viability (NCI-H650; first compound 0.03162 µM): 0.991 | relative viability (NCI-H650; first compound 0.1 µM): 1.03 | relative viability (NCI-H650; first compound 0.3162 µM): 1.03 | relative viability (NCI-H650; first compound 1 µM): 1.05 | relative viability (NCI-H322M; first compound 0.01 µM): 0.979 | relative viability (NCI-H322M; first compound 0.03162 µM): 1.09 | relative viability (NCI-H322M; first compound 0.1 µM): 1.09 | relative viability (NCI-H322M; first compound 0.3162 µM): 0.601 | relative viability (NCI-H322M; first compound 1 µM): 0.315 | relative viability (NCI-H1355; first compound 0.01 µM): 0.964 | relative viability (NCI-H1355; first compound 0.03162 µM): 0.975 | relative viability (NCI-H1355; first compound 0.1 µM): 0.967 | relative viability (NCI-H1355; first compound 0.3162 µM): 1.02 | relative viability (NCI-H1355; first compound 1 µM): 0.995 | relative viability (NCI-H1395; first compound 0.01 µM): 0.974 | relative viability (NCI-H1395; first compound 0.03162 µM): 1.08 | relative viability (NCI-H1395; first compound 0.1 µM): 1.1 | relative viability (NCI-H1395; first compound 0.3162 µM): 0.91 | relative viability (NCI-H1395; first compound 1 µM): 0.452 | relative viability (LCLC-103H; first compound 0.01 µM): 0.815 | relative viability (LCLC-103H; first compound 0.03162 µM): 0.829 | relative viability (LCLC-103H; first compound 0.1 µM): 0.82 | relative viability (LCLC-103H; first compound 0.3162 µM): 0.764 | relative viability (LCLC-103H; first compound 1 µM): 0.823
